# Measured values as given in patent publication US10947284B2, “Fusion molecules” (Pieris Pharmaceuticals GMBH, priority 2015, dated 2021).
# Starred links: 1 amine or outer side, 2 acyl side, 3 side chain; linkers in the order of their positions; H or OH if unused. Non-standard residues stand in square brackets, D forms with d. Residues, ends and D or L forms follow the SMILES beside them. *: point of attachment. X1 = O=C([C@@H]1CCNc2c(N[*:1])cc3cc(O)c(O)cc3[n+]21)[*:2]; dOrn(N5-OH,N5-CHO) = N[C@H](CCCN(O)C=O)C(=O)O; Butanoyl(2-oxo,4-COOH) = O=C(O)CCC(=O)C(=O)*; d(aThr) = C[C@@H](O)[C@@H](N)C(=O)O; X2 = O=C1[C@@H](N*)CCCN1[O-]; X3 = O=C1[C@@H](N*)CCCN1O; Orn = NCCC[C@H](N)C(=O)O
# What was measured:
# [1] = biological target: lipocalin negative control SEQ ID NO: 64 (Homo sapiens, UniProt P80188, C107S/Q48H); assay: Surface plasmon resonance (Biacore T200); format: binding; conditions: SPR, analyte at 200 nM
# Sequence of lipocalin negative control SEQ ID NO: 64 (P80188 21-198 Q48H/C107S): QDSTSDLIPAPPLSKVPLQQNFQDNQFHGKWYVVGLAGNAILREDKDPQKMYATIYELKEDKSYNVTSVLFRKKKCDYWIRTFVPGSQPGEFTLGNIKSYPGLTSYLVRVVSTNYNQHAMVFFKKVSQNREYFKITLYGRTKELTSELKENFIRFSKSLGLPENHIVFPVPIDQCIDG
# Protocol: (§5) In a Surface Plasmon Resonance (SPR) based assay a Biacore T200 instrument (GE Healthcare) was used to measure the binding affinity of muteins to pyoverdine I succinyl, -succinamide, -α-ketoglutaryl with complexed iron ion or to pyoverdine II succinyl, -succinamide, -α-ketoglutaryl with complexed iron ion or to pyoverdine III succinyl, -succinamide, -α-ketoglutaryl with complexed iron ion. Muteins selected for binding to pyoverdines and negative control (SEQ ID NO: 64) were biotinylated for 2 h at room temperature applying an appropriate excess of EZ-Link NHS-PEG4-Biotin (Thermo, Cat #21329) followed by separation of non-reacted Biotin using a Zebra Spin Desalting Plate (Thermo, Cat #21329) according to the manufactures instructions.
# In the SPR affinity assay, biotinylated muteins and negative control were captured on a sensor chip CAP using the Biotin CAPture Kit (GE Healthcare): Sensor Chip CAP is pre-immobilized with an ssDNA oligo. Undiluted Biotin CAPture Reagent (streptavidin conjugated with the complementary ss-DNA oligo) was applied at a flow rate of 2 μl/min for 300 s. Subsequently, 1 μg/ml to 100 μg/mL of biotinylated muteins or negative control were applied for 300 s at a flow rate of 5 μl/min. The reference channel was loaded with Biotin CAPture Reagent only.
# Applying a flow rate of 30 μl/min, a single cycle or multi cycle kinetics approach was used with a sample contact time of 120-180 s and a dissociation time of 900-2400 s. […] After ligand immobilization, for analysis using single cycle kinetics all 4-5 concentrations of Pvd were applied consecutively in ascending order before the dissociation was monitored. For analysis using multi cycle kinetics 4 dilutions of Pvd were applied, each followed a dissociation phase. All measurements were performed at 25° C. […] Data were evaluated with Biacore T200 Evaluation software (V 1.0). Double referencing was used. A 1:1 Binding model was used to fit the raw data.
# Subsequently, 5 μg/mL of mutein or the negative control solution in 10 mM acetate pH 4.0 was applied at a flow rate of 10 μl/min until a high immobilization level of approximately 2000 RU was achieved. Residual activated groups were quenched with ethanolamine. The reference channels were treated with EDC/NHS following ethanolamine (blank immobilization).
# In the SPR affinity assay, biotinylated muteins and negative control were captured on a sensor chip CAP using the Biotin CAPture Kit (GE Healthcare), wherein the Sensor Chip CAP is pre-immobilized with an ssDNA oligo. Undiluted Biotin CAPture Reagent (streptavidin conjugated with the complementary ss-DNA oligo) was applied at a flow rate of 2 μl/min for 300 s. Subsequently, 20 μg/ml to 100 μg/mL of biotinylated muteins or fusion molecule negative control were applied for 300 s at a flow rate of 5 μl/min. The reference channel was loaded with Biotin CAPture Reagent only. To determine the binding affinity, four dilutions of the respective Pvd were prepared in HBS-EP+ buffer (GE Healthcare) and applied to the chip surface. Applying a flow rate of 30 μl/min, a single cycle kinetics approach was used with a sample contact time of 180 s and a dissociation time of 1800-2400 s. […] After ligand immobilization, the four concentrations of Pvd were applied consecutively in ascending order before the dissociation was monitored. All measurements were performed at 25° C. […] Data were evaluated with Biacore T200 Evaluation software (V 1.0). Double referencing was preformed. A 1:1 binding model was used to fit the raw data.
# [2] = biological target: hNGAL muteins from affinity optimization of SEQ ID NO: 55 (Homo sapiens, UniProt P80188); assay: Solution binding ELISA
# Sequence of hNGAL muteins from affinity optimization of SEQ ID NO: 55 (P80188 21-198, stated change not applied): as the sequence (P80188 21-198 Q48H/C107S) above, with H28Q, S87C counted along it
# Protocol: (§1) Solution binding of muteins was assayed by a “Solution binding ELISA”, the principle of which was as follows: a constant concentration of the tested mutein was incubated with variable concentrations of ligands (Pvd I s, sa, αKG+/−Fe/Pvd II s, sa, αKG+/−Fe/Pvd III s, sa, αKG+/−Fe/Pch+/−Fe) for 1 h. After this pre-incubation in solution, an aliquot of the mutein/ligand mixture was transferred to an ELISA plate with biotinylated Pvd I s (+Fe), Pvd II s (+Fe), Pvd III s (+Fe) or Pch immobilized via Neutravidin to measure the remaining concentration of free muteins. The concentration of free (non ligand-bound) muteins was determined via a quantitative ELISA setup.
# (§2) In detail, a 384-well plate suitable for fluorescence measurements (Greiner FLUOTRAC™ 600, black flat bottom, high-binding) was coated with 20 μl of Neutravidin at a concentration of 5 μg/ml in PBS overnight at 4 C. After washing, the Neutravidin-coated wells were blocked with 100 μl blocking buffer containing 0.1% Tween 20 and 2% BSA (PBS-T/BSA) for 1 h at room temperature.
# (§3) A fixed concentration of muteins was incubated in solution with varying concentrations of ligand (Pvd I s, sa, αKG+/−Fe/Pvd II s, sa, αKG+/−Fe/Pvd III s, sa, αKG+/−Fe/Pch+/−Fe), using a suitable starting concentration which was serially diluted at a 1:3 ratio down to the picomolar range in PBS-T/BSA. […] To allow for transformation of ELISA readout results into absolute free mutein concentrations, a standard curve containing varying concentrations of muteins was prepared in PBS-T/BSA and incubated for 20 min on the same ELISA plate as well.
# (§4) The residual supernatants were discarded and 20 μl HRP-labeled anti-hNGAL antibody was added at a predetermined optimal concentration in PBS-T/BSA and incubated for 1 h at RT. […] The fluorescence intensity of every well on the plate was read using a fluorescence microplate reader (Tecan or Molecular Devices). To evaluate the data, free mutein concentration, c(mutein)free, was calculated based on the standard curve results, and plotted versus ligand concentration, c(Ligand). […]
# [3] = biological target: hNGAL muteins from affinity optimization of SEQ ID NO: 56 (Homo sapiens, UniProt P80188); assay: Solution binding ELISA
# Sequence of hNGAL muteins from affinity optimization of SEQ ID NO: 56 (P80188 21-198, stated change not applied): as the sequence (P80188 21-198 Q48H/C107S) above, with H28Q, S87C counted along it
# Protocol: as §1, §2, §3, §4
# [4] = biological target: T1, hNGAL (human lipocalin 2, parent wild type SEQ ID NO: 1) mutein SEQ ID NO: 57 (Homo sapiens, UniProt P80188, A60Y/C107S/D97R/I61W/K145L/K154N/K93R/L123Q/L56V/L90R/N116P/Q48H/Q69A/R101W/R92W/S147R/S88D/W99D/Y120E/Y126R/Y152A); assay: Solution binding ELISA
# T1 construct: made in house; host or cells: E. coli
# T1 sequence (P80188 21-198 with the stated changes): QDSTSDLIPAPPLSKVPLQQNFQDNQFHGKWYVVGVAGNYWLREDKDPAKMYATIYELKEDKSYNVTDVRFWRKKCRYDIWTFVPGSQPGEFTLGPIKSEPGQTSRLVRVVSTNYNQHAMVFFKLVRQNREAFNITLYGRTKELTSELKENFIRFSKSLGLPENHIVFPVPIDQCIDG
# Protocol: (§6) The residual supernatants were discarded and 20 μl HRP-labeled anti-hNGAL antibody was added at a predetermined optimal concentration in PBS-T/BSA and incubated for 1 h at RT. […] After washing, 20 μl fluorogenic HRP substrate (QuantaBlu, Thermo) was added to each well, and the reaction was allowed to proceed for 15 to 60 minutes. The fluorescence intensity of every well on the plate was read using a fluorescence microplate reader (Tecan or Molecular Devices). […] Curve fitting was performed using GraphPad Prism 4 software.
# [5] = biological target: T2, hNGAL (human lipocalin 2, parent wild type SEQ ID NO: 1) mutein SEQ ID NO: 56 (Homo sapiens, UniProt P80188, A60F/C107S/D97A/I61H/K145G/K154V/K93A/L123M/L56M/L90P/N116A/Q48H/Q69S/R101I/R92W/S147W/S88H/W99K/Y120G/Y126W/Y152T/Y72P); assay: Solution binding ELISA
# T2 construct: made in house; host or cells: E. coli
# T2 sequence (P80188 21-198 with the stated changes): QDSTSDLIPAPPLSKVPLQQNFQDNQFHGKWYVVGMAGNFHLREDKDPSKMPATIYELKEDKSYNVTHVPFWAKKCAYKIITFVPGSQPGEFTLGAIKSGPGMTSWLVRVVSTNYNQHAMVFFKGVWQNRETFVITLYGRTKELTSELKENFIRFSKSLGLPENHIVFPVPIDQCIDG
# Protocol: as §6
# [6] = biological target: T3, hNGAL (human lipocalin 2, parent wild type SEQ ID NO: 1) mutein SEQ ID NO: 27 (Homo sapiens, UniProt P80188, A60T/C107S/D97N/E64D/I61V/K154W/K93N/L123Q/L56V/L90R/Q48H/Q69G/R101E/R92H/S147K/S88E/W99S/Y126M/Y152V/Y72P); assay: Solution binding ELISA
# T3 construct: made in house; host or cells: E. coli
# T3 sequence (P80188 other isoform, or with tags, fused parts or gaps with the stated changes): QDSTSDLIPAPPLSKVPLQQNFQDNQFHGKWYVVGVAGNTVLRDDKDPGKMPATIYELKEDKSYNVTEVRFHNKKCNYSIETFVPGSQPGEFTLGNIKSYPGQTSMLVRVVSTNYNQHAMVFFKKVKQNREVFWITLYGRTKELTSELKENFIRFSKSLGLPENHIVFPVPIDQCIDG
# Protocol: as §6
# [7] = biological target: T4, Fusion molecule SEQ ID NO: 134 (hNGAL muteins SEQ ID NOs: 36, 16, 53 and 62) (Homo sapiens, UniProt P80188, A60T/C107S/D97H, form not given/K145I/K154W/K93R/L123T/L56V/L90R/N85D/Q69G/R101D/R92I/S147R/S88D/T74A/W99Y/Y126Q/Y152I/Y72N); assay: Solution binding ELISA; conditions: binding to target in solution, tracer 0.1 nM, Table 11
# T4 construct: made in house
# T4 sequence (P80188 with tags, fused parts or gaps with the stated changes, form open): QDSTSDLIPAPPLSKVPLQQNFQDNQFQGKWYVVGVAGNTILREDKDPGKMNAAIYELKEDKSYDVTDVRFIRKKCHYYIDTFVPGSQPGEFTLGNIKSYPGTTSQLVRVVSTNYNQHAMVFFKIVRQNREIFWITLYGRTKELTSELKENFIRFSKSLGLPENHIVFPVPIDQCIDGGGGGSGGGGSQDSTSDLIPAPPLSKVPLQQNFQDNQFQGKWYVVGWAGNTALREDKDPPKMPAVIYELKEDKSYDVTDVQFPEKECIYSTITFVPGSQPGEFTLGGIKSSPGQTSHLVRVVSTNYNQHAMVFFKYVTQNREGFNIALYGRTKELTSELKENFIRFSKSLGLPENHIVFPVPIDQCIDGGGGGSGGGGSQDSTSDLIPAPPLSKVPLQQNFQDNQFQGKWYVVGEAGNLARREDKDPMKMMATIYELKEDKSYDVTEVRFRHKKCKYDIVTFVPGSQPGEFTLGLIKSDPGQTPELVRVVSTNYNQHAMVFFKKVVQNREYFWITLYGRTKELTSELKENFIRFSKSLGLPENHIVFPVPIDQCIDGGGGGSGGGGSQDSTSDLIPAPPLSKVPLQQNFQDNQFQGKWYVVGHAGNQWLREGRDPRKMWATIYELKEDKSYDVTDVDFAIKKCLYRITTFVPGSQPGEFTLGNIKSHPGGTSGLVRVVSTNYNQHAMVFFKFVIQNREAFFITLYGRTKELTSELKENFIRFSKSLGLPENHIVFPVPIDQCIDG
# [8] = biological target: T5, hNGAL (human lipocalin 2, parent wild type SEQ ID NO: 1) mutein SEQ ID NO: 36 (Homo sapiens, UniProt P80188, A60T/C107S/D97H/K145I/K154W/K93R/L123T/L56V/L90R/N85D/Q69G/R101D/R92I/S147R/S88D/T74A/W99Y/Y126Q/Y152I/Y72N); assay: Surface plasmon resonance (Biacore T200); format: binding; conditions: SPR, 25° C., Table 2B
# T5 construct: made in house; host or cells: E. coli
# T5 sequence (P80188 21-198 with the stated changes): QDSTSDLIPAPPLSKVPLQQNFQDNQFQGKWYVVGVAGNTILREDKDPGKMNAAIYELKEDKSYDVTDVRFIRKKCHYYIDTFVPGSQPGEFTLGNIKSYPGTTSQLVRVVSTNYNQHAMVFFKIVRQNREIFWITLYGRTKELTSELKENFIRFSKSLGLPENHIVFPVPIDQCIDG
# Protocol: as §5
# In the SPR affinity assay, biotinylated muteins and negative control were captured on a sensor chip CAP using the Biotin CAPture Kit (GE Healthcare): Sensor Chip CAP is pre-immobilized with an ssDNA oligo. Undiluted Biotin CAPture Reagent (streptavidin conjugated with the complementary ss-DNA oligo) was applied at a flow rate of 2 μl/min for 300 s. Subsequently, 1 μg/ml to 100 μg/mL of biotinylated muteins or negative control were applied for 300 s at a flow rate of 5 μl/min. […]
# Applying a flow rate of 30 μl/min, a single cycle or multi cycle kinetics approach was used with a sample contact time of 120-180 s and a dissociation time of 900-2400 s. […] After ligand immobilization, for analysis using single cycle kinetics all 4-5 concentrations of Pvd were applied consecutively in ascending order before the dissociation was monitored. […] Data were evaluated with Biacore T200 Evaluation software (V 1.0). […]
# In the SPR affinity assay, biotinylated muteins and negative control were captured on a sensor chip CAP using the Biotin CAPture Kit (GE Healthcare), wherein the Sensor Chip CAP is pre-immobilized with an ssDNA oligo. […] After ligand immobilization, the four concentrations of Pvd were applied consecutively in ascending order before the dissociation was monitored. […] Data were evaluated with Biacore T200 Evaluation software (V 1.0). […]
# [9] = biological target: T6, hNGAL (human lipocalin 2, parent wild type SEQ ID NO: 1) mutein SEQ ID NO: 29 (Homo sapiens, UniProt P80188, A60Q/C107S/D97N/E64D/I61V/K154W/K93N/L123H/L56V/L90R/Q48H/Q69G/R101E/R92H/S147K/S88E/Y120N/Y126M/Y152G/Y72P); assay: Solution binding ELISA
# T6 construct: made in house; host or cells: E. coli
# T6 sequence (P80188 other isoform, or with tags, fused parts or gaps with the stated changes): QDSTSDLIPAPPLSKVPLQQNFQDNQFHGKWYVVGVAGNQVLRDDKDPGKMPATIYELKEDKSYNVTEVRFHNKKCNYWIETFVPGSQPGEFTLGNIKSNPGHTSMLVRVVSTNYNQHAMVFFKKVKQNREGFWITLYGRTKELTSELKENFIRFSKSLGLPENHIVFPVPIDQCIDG
# Protocol: as §6
# [10] = biological target: T7, hNGAL (human lipocalin 2, parent wild type SEQ ID NO: 1) mutein SEQ ID NO: 34 (Homo sapiens, UniProt P80188, A60T/C107S/D97H/K145I/K154W/K93R/L123T/L56V/L90R/N85D/Q48H/Q69G/R101D/R92I/S147R/S88D/T74A/W99Y/Y126Q/Y152I/Y72N); assay: Solution binding ELISA; conditions: Example 5
# T7 construct: made in house; host or cells: E. coli
# T7 sequence (P80188 other isoform, or with tags, fused parts or gaps with the stated changes): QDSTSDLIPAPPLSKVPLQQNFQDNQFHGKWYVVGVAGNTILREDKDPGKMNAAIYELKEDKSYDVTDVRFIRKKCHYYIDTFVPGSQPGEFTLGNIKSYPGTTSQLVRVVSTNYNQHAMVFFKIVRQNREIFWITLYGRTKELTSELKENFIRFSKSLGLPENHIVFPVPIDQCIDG
# Protocol: as §6
# [11] = biological target: T8, hNGAL (human lipocalin 2, parent wild type SEQ ID NO: 1) mutein SEQ ID NO: 28 (Homo sapiens, UniProt P80188, A60T/C107S/D97N/E64D/I61V/K154W/L123Q/L56V/L90R/N116K/Q48H/Q69G/R101E/R92H/S147K/S88E/W99F/Y120H/Y126M/Y152A/Y72P); assay: Solution binding ELISA
# T8 construct: made in house; host or cells: E. coli
# T8 sequence (P80188 other isoform, or with tags, fused parts or gaps with the stated changes): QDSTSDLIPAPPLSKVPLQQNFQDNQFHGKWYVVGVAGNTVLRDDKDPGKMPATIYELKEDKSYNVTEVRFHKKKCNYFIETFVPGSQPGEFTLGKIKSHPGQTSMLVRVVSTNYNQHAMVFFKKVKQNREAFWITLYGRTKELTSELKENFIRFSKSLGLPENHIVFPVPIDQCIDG
# Protocol: as §6
# [12] = biological target: T9, hNGAL (human lipocalin 2, parent wild type SEQ ID NO: 1) mutein SEQ ID NO: 20 (Homo sapiens, UniProt P80188, A60T/C107S/D97H/K145I/K154W/K93M/L123T/L90R/N116I/Q48H/Q69G/R101E/R92I/S147R/S88D/W99Y/Y120N/Y126Q/Y152M/Y72N); conditions: solution binding ELISA
# T9 construct: made in house; host or cells: E. coli
# T9 sequence (P80188 other isoform, or with tags, fused parts or gaps with the stated changes): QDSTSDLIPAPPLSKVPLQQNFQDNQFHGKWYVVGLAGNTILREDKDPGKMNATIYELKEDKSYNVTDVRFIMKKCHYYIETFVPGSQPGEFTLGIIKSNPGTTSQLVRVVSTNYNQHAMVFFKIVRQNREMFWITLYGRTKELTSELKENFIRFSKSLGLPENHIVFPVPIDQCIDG
# Protocol: as §6
# [13] = biological target: T10, hNGAL (human lipocalin 2, parent wild type SEQ ID NO: 1) mutein SEQ ID NO: 31 (Homo sapiens, UniProt P80188, A60T/C107S/D97H/K145I/K154W/K93R/L123T/L56V/L90R/Q48H/Q69G/R101D/R92I/S147R/S88D/W99Y/Y126Q/Y152I/Y72N); assay: Solution binding ELISA
# T10 construct: made in house; host or cells: E. coli
# T10 sequence (P80188 other isoform, or with tags, fused parts or gaps with the stated changes): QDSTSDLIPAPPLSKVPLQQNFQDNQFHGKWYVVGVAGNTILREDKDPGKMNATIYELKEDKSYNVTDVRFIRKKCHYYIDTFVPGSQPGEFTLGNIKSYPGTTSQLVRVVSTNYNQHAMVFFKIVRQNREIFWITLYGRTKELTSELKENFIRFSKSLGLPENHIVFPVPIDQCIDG
# Protocol: as §6
# [14] = biological target: T11, hNGAL (human lipocalin 2, parent wild type SEQ ID NO: 1) mutein SEQ ID NO: 19 (Homo sapiens, UniProt P80188, A60E/C107S/D97N/I61V/K154W/K93N/L123Q/L56V/L90R/Q48H/Q69G/R101E/R92H/S147K/S88E/W99S/Y120N/Y126M/Y152G/Y72P); assay: Solution binding ELISA
# T11 construct: made in house; host or cells: E. coli
# T11 sequence (P80188 other isoform, or with tags, fused parts or gaps with the stated changes): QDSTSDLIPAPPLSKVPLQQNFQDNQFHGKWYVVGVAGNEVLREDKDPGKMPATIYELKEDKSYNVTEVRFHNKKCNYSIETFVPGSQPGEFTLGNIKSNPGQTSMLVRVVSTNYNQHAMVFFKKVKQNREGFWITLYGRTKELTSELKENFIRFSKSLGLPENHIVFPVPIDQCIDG
# Protocol: as §6
# [15] = biological target: T12, hNGAL (human lipocalin 2, parent wild type SEQ ID NO: 1) mutein SEQ ID NO: 30 (Homo sapiens, UniProt P80188, A60T/C107S/D97H/K145I/K154W/K93F/L123M/L56V/L90R/Q48H/Q69G/R101D/R92I/S147R/S88D/W99Y/Y126Q/Y152I/Y72N); assay: Solution binding ELISA
# T12 construct: made in house; host or cells: E. coli
# T12 sequence (P80188 other isoform, or with tags, fused parts or gaps with the stated changes): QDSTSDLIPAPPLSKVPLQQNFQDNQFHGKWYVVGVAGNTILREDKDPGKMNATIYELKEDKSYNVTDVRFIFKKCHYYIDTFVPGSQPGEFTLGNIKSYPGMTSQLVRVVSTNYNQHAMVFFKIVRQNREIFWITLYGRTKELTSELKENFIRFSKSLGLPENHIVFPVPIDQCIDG
# Protocol: as §6
# [16] = biological target: T13, hNGAL (human lipocalin 2, parent wild type SEQ ID NO: 1) mutein SEQ ID NO: 26 (Homo sapiens, UniProt P80188, A60E/C107S/D97N/E64D/I61V/K145N/K154W/K93N/L123V/L56V/L90R/N116K/Q48H/Q69G/R101E/R92H/S147K/S88E/W99S/Y120N/Y126M/Y152G/Y72P); assay: Solution binding ELISA
# T13 construct: made in house; host or cells: E. coli
# T13 sequence (P80188 other isoform, or with tags, fused parts or gaps with the stated changes): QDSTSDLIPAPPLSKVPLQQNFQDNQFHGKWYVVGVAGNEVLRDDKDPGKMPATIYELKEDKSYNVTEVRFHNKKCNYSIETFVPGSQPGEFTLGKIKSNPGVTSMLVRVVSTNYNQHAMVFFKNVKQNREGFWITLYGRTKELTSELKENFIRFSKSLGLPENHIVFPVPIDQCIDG
# Protocol: as §6
# [17] = biological target: T14, Fusion molecule SEQ ID NO: 134 (hNGAL muteins SEQ ID NOs: 36, 16, 53 and 62) (Homo sapiens, UniProt P80188, A60T/C107S/D97H, form not given/K145I/K154W/K93R/L123T/L56V/L90R/N85D/Q69G/R101D/R92I/S147R/S88D/T74A/W99Y/Y126Q/Y152I/Y72N); assay: Surface plasmon resonance (Biacore T200); format: binding; conditions: Biacore, 25° C., Table 13
# T14 construct: made in house; host or cells: HEK293
# T14 sequence (P80188 with tags, fused parts or gaps with the stated changes, form open): as the sequence (P80188 with tags, fused parts or gaps with the stated changes, form open) above
Compound,binding [1],affinity (in words) [2],affinity (in words) [3],affinity (in words) [4],affinity (in words) [5],IC50 [6] [nM],IC50 [7] [nM],Kd [8] [nM],koff [8] [s⁻¹],kon [8] [M⁻¹ s⁻¹],IC50 [9] [nM],IC50 [10] [nM],IC50 [11] [nM],IC50 [12] [nM],IC50 [13] [nM],IC50 [14] [nM],IC50 [15] [nM],IC50 [16] [nM],Kd [17] [nM],improved affinity ([2]; compared with SEQ ID NO: 55)
"CN1C([C@H]2CSC(c3ccccc3O)=N2)SC[C@H]1C(=O)O.[Fe+3] (stereo partly drawn) [pch (+Fe), pyochelin]",absence of binding,single digit nM affinity,no or weak affinity,two- to three digit nM affinity,two- to three digit nM affinity,–,–,–,–,–,–,–,–,–,–,–,–,–,–,–
"C[C@@H](O)[C@@H](NC(=O)CNC(=O)[C@H](CCCN)NC(=O)[C@@H](CCCN([O-])C=O)NC(=O)[C@@H](CO)NC(=O)[C@@H]1CCNc2c(NC(=O)C(=O)CCC(=O)O)cc3cc([O-])c([O-])cc3[n+]21)C(=O)N[C@@H](CO)C(=O)N[C@H]1CCCN([O-])C1=O.[Fe+3] [Pvd II aKG (+Fe), Pvd type II α-ketoglutaryl] ({Butanoyl(2-oxo,4-COOH)}-[X1][dS][dOrn(N5-OH,N5-CHO)][Orn]G[d(aThr)]S-X2)",–,–,–,–,–,1.97,0.88,1.97,5.62e-05,28600,1.9,1.6,2.25,85,1.1,21,3,1.3,1.19,–
"CN1C([C@H]2CSC(c3ccccc3O)=N2)SC[C@H]1C(=O)O (stereo partly drawn) [pch (−Fe), pyochelin]",–,–,–,weak affinity or not at all,weak affinity or not at all,–,–,–,–,–,–,–,–,–,–,–,–,–,–,more than 75 fold
"C[C@@H](O)[C@@H](NC(=O)CNC(=O)[C@H](CCCN)NC(=O)[C@@H](CCCN(O)C=O)NC(=O)[C@@H](CO)NC(=O)[C@@H]1CCNc2c(NC(=O)C(=O)CCC(=O)O)cc3cc(O)c(O)cc3[n+]21)C(=O)N[C@@H](CO)C(=O)N[C@H]1CCCN(O)C1=O [Pvd II aKG (−Fe), Pvd type II α-ketoglutaryl] ({Butanoyl(2-oxo,4-COOH)}-[X1][dS][dOrn(N5-OH,N5-CHO)][Orn]G[d(aThr)]S-X3)",–,–,–,–,–,1.4,0.81,–,–,–,1.6,1.2,1.65,89,0.64,34,2.85,0.75,3.27,–
